Structures can show the parent of a compound that is named as a salt. Where two headings read alike, the source gives them in different places.
Columns and labels:
[1] = target: muscarinic receptors; test: Radio ligand binding, displacement of muscarinic agonist 3H-Oxotremorine-M (3H-OXO-M); parameters: species or system rat (Hooded Lister); settings: displacement of 2 nM 3H-OXO-M, rat cerebral cortex homogenate, 37° C., 30 min, 2 mM magnesium chloride
[2] = target: muscarinic receptors; type: binding, rat (Hooded Lister); settings: displacement of 0.27 nM 3H-QNB, rat cerebral cortex homogenate, 37° C., 30 min

CON=CC12CCCN(CC1)C2 (mixture of isomers) [E 1, (±) syn-1-Azabicyclo[3,2,1]oct-5-ylcarboxaldehyde, O-methyloxime hydrochloride salt]
IC50 [1]: 0.073 µM | IC50 [2]: 5.2 µM

CON=C(C)C1CN2CCC1CC2 (mixture of isomers) [E 3, (±) trans-3-Acetyl-1-azabicyclo[2.2.21octane-O-methyloxime hydrochloride salt]
IC50 [1]: 0.069 µM | IC50 [2]: 2 µM

C#CCON=C(C)C1CN2CCC1C2 (mixture of isomers) [E 15, (±)exo-3-Acetyl-1-azabicyclo2.2.1]heptane-trans-O-proparqyloxime hydrochloride salt]
IC50 [1]: 0.219 µM | IC50 [2]: 3.9 µM

CCC(=NOC)C1CN2CCC1C2 (mixture of isomers) [E 16, (±)exo-3-Propan-1-one-1-azabicyclo2.2.11heptane-trans-O-methyloxime hydrochloride salt]
IC50 [1]: 0.204 µM | IC50 [2]: 3.4 µM

CON=CC1CN2CCC1CC2 (racemic) [E 2, (±) 1-Azabicyclo[2.2.2]oct-3-ylcarboxaldehyde, O-methyloxime hydrochloride salt]
IC50 [1]: 0.095 µM | IC50 [2]: 10 µM

CON=C(C)C12CCCN(CC1)C2 (racemic) [E 6, (±) trans-5-Acetyl-1-azabicyclo[3.2.1]octane-O-methyloxime hydrochloride salt]
IC50 [1]: 0.046 µM | IC50 [2]: 4.4 µM

CON=C(C)C1CN2CCC1C2 (racemic) [E 13, (±)exo-3-Acetyl-1-azabicyclo[2.2.1]heptane-trans-O-methyloxime oxalate salt]
IC50 [1]: 0.099 µM | IC50 [2]: 9 µM

C#CCON=CC1CN2CCC1CC2 (racemic) [E 17, (±)1-Azabicyclo[2.2.21oct-3-ylcarboxaldehyde, O-proparqyloxime hydrochloride salt]
IC50 [1]: 0.19 µM | IC50 [2]: 2.45 µM

CON=C(C)C1CC2CCN(C2)C1 (racemic) [E 24, (±)exo-3-Acetyl-1-azabicyclo[3.2.1]octane-trans-O-methyloxime hydrochloride salt]
IC50 [1]: 0.32 µM | IC50 [2]: 7.3 µM

CON=C[C@@H]1CN2CC[C@@H]1C2 (relative stereo) [E 7, (±) exo-1-Azabicyclo[2.2.1]hept-3-ylcarboxaldehyde, O-methyloxime oxalate salt]
IC50 [1]: 0.014 µM | IC50 [2]: 4.8 µM

CCON=C[C@@H]1CN2CC[C@@H]1C2 (relative stereo) [E 8, (±) exo-1-Azabicyclo[2.2.1]hept-3-ylcarboxaldehyde, O-ethyloxime oxalate salt]
IC50 [1]: 0.16 µM | IC50 [2]: 5.6 µM

C#CCON=C[C@@H]1CN2CC[C@@H]1C2 (relative stereo) [E 9, (±) exo-1-Azabicyclo[2.2.11hept-3-ylcarboxaldehyde, O-proparqyloxime oxalate salt]
IC50 [1]: 0.024 µM | IC50 [2]: 2.7 µM

C=CCON=C[C@@H]1CN2CC[C@@H]1C2 (relative stereo) [E 22, (±)exo-1-Azabicyclo2.2.1]hept-3-ylcarboxaldehyde, O-allyloxime oxalate salt]
IC50 [1]: 0.215 µM | IC50 [2]: 8.5 µM

CON=C[C@H]1C[C@@H]2CCN(C1)C2 (relative stereo) [E 23, (±)exo-1-Azabicyclo[3.2.11oct-3-ylcarboxaldehyde, O-methyloxime hydrochloride salt]
IC50 [1]: 0.24 µM | IC50 [2]: 5.57 µM

CON=CC12CCN(CC1)C2 [E 19, syn-1-Azabicyclo[2.2.1]hept-4-ylcarboxaldehyde, O-methyloxime hydrochloride salt]
IC50 [1]: 0.118 µM | IC50 [2]: 40 µM

CON=C(C)C12CCN(CC1)C2 [E 20, 4-Acetyl-1-azabicyclo[2.2.1]heptane-O-methyloxime oxalate salt]
IC50 [1]: 0.055 µM | IC50 [2]: 12.5 µM

C#CCON=CC12CCN(CC1)C2 [E 21, syn-1-Azabicyclo[2.2.11hect-4-ylcarboxaldehyde, O-proparqyloxime oxalate salt]
IC50 [1]: 0.352 µM | IC50 [2]: 21 µM
